Laboratory results as given in ChEMBL document CHEMBL3259735, “Designing bifunctional NOP receptor-mu opioid receptor ligands from NOP-receptor selective scaffolds. Part II” (Bioorg Med Chem, 2014).
Calls of active or inactive are those of the source. No cut-off for these calls is given here.

Assays:
Mus musculus [1] = assay: Toxicity in ICR mouse assessed as rewarding effect by measuring increase in time spent in drug-paired compartment at 1 to 10 mg/kg, sc administered every 2 days for 6 days measured 24 hrs post last dose by conditioned place preference assay; type: organism-based; design: dose 1-10 mg/kg, route subcutaneous; settings: in vivo
Mus musculus [2] = assay: Toxicity in ICR mouse assessed as effect on global effect at 1 to 10 mg/kg, sc administered every 2 days for 6 days measured 24 hrs post last dose during conditioning training; type: organism-based; design: dose 1-10 mg/kg, route subcutaneous; settings: in vivo
Mus musculus [3] = assay: Toxicity in ICR mouse assessed as rewarding effect by measuring increase in time spent in drug-paired compartment at 10 mg/kg, sc administered every 2 days for 6 days measured 24 hrs post last dose by conditioned place preference assay; type: organism-based; design: dose 10 mg/kg, route subcutaneous; settings: in vivo
Mus musculus [4] = assay: Toxicity in ICR mouse assessed as increase in global effect at 10 mg/kg, sc administered every 2 days for 6 days measured 24 hrs post last dose during conditioning training; type: organism-based; design: dose 10 mg/kg, route subcutaneous; settings: in vivo
Mus musculus [5] = assay: Antinociceptive activity in ICR mouse assessed as thermal-stimulus induced tail flick latency at 3 to 10 mg/kg, sc measured up to 4 hrs relative to control; type: functional, organism-based

Structure (SMILES)	Activity (Mus musculus [1])	Activity (Mus musculus [2])	Activity (Mus musculus [3])	Activity (Mus musculus [4])	Activity (Mus musculus [5])
CCC1C(=O)N(C2CCN([C@H]3CC[C@@H]4CCCc5cccc3c54)CC2)c2ccccc21 (mixture of isomers)	Non-toxic	Non-toxic			
CN1CC[C@]23c4c5ccc(O)c4O[C@H]2[C@@H](O)C=C[C@H]3[C@H]1C5 [MORPHINE]			Toxic	Toxic	Active
